Results reported in US10092566B2, “Composition for controlling a gut immunity and use thereof” (SEOUL NATIONAL UNIVERSITY R&DB FOUNDATION, priority 2013, dated 2018).

Test system: DUOX
Test: In vivo ROS detection in gut epithelia (HOCl-specific R19S staining, ratio of ROS-positive guts)
Set-up: species or system Drosophila
Excerpt: R19S, a recently developed HOCl-specific rhodamine-based dye, was used in this experiment (Chen et al., Chem Commun (Camb) 47, pp. 4373-4375, 2011). R19S was purchased from Futurechem (Seoul, South Korea). […]
Furthermore, to measure the basal level of ROS in germ-free animals, Drosophila monoassociated with each bacterium (C. intestini, A. pomorum, L. plantarum, G. morbifer, G. morbifer-carA::Tn5, L. brevis, or L. brevisΔcarA) were experimented with as disclosed above. A 5% sucrose solution containing 10 μM of R19S was orally administered to the monoassociated Drosophila (13 days old) for 90 minutes.
Following the R19S ingestion, the midguts were dissected and fixed with 4% formaldehyde. The level of HOCl (ROS level) was visualized by LSM700 confocal microscopy (Carl Zeiss).
For all of the experiments, R19S-positive guts in each animal group (n=approx. 20) were measured by each independent experiment, and data was indicated by at least three repeated and independent experiments. The number of R19S-positive guts in regard to the total numbers of gut samples was indicated as the ratio of ROS-positive guts.

Row | SMILES | ROS-inducing ability / DUOX activation (nucleobases and pyrimidine analogs, 20 nM each, ingestion for 15 minutes) | DUOX-dependent ROS after coingestion of uracil with N-acetylcysteine (uracil 20 nM, 1.5 hours, plus N-acetylcysteine)
1 | O=c1[nH]cc(F)c(=O)[nH]1 [5-fluorouracil, reference compound] | only uracil is capable of activating DUOX | 
2 | CC(=O)N[C@@H](CS)C(=O)O [N-acetylcysteine, reference compound] |  | could not be detected
